Test results: ChEMBL document CHEMBL5712083, “Regulation of Epstein-Barr Virus Life Cycle and Cell Proliferation by Histone H3K27 Methyltransferase EZH2 in Akata Cells” (mSphere, 2018)
Calls of active or inactive are those of the source. The rule behind the calls is not given here.

Legend:
Type in all cases: cell-based
[1] = target: Histone-lysine N-methyltransferase EZH2 (Homo sapiens) (UniProt Q15910); experiment: Inhibition of EZH2 in human EBV-positive Akata cells assessed as reduction in H3K27me3 levels at 1 uM after 3 days by Western blot analysis; conditions: time 3.0 day
Histone-lysine N-methyltransferase EZH2 (Homo sapiens), sequence (Q15910 whole entry, looked up): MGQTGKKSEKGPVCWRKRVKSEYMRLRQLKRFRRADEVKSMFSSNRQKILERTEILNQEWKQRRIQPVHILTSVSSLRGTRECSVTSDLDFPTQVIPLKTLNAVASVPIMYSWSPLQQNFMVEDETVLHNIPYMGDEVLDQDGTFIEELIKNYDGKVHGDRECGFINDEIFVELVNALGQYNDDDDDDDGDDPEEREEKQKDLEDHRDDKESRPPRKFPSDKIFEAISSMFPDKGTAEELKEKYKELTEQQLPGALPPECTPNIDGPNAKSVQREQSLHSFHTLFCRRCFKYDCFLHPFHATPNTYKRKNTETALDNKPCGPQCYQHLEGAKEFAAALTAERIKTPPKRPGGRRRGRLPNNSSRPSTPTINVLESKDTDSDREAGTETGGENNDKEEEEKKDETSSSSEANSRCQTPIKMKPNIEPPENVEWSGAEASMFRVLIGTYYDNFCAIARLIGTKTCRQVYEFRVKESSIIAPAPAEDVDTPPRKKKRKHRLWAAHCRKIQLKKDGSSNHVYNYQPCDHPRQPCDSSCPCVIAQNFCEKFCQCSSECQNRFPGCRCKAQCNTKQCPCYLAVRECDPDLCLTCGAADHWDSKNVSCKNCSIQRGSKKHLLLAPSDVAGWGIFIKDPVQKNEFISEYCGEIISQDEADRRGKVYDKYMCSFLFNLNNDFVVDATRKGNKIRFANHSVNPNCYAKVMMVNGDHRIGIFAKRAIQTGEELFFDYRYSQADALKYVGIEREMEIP

[2] = target: Histone-lysine N-methyltransferase EZH2 (Homo sapiens) (UniProt Q15910); experiment: Inhibition of EZH2 (unknown origin) in Lymphoblastoid cells assessed as reduction in H3K27me3 levels at 1 uM after 3 days by Western blot analysis; conditions: Lymphoblastoid cell, time 3.0 day
[3] = target: Histone-lysine N-methyltransferase EZH2 (Homo sapiens) (UniProt Q15910); experiment: Inhibition of EZH2 (unknown origin) in Lymphoblastoid cells assessed as reduction in H3K27me3 levels at 1 uM after 3 days by CHIP assay; conditions: Lymphoblastoid cell, time 3.0 day
[4] = target: Histone-lysine N-methyltransferase EZH2 (Homo sapiens) (UniProt Q15910); experiment: Inhibition of EZH2 (unknown origin) in Lymphoblastoid cells assessed as effect on lytic gene LMP2 at 1 uM for 3 days followed by addition of TPA, A23187 and sodium butyrate for lytic induction for 2 days by qRT-PCR analysis; conditions: Lymphoblastoid cell, time 5.0 day
[5] = target: Histone-lysine N-methyltransferase EZH2 (Homo sapiens) (UniProt Q15910); experiment: Inhibition of EZH2 (unknown origin) in Lymphoblastoid cells assessed as effect on lytic gene gp350/200 at 1 uM for 3 days followed by addition of TPA, A23187 and sodium butyrate for lytic induction for 2 days by qRT-PCR analysis; conditions: Lymphoblastoid cell, time 5.0 day
[6] = target: Histone-lysine N-methyltransferase EZH2 (Homo sapiens) (UniProt Q15910); experiment: Inhibition of EZH2 in human EBV-positive Akata cells assessed as effect on lytic gene EBNA1 at 1 uM after 3 days by qRT-PCR analysis; conditions: time 3.0 day
[7] = target: Histone-lysine N-methyltransferase EZH2 (Homo sapiens) (UniProt Q15910); experiment: Inhibition of EZH2 (unknown origin) in Lymphoblastoid cells assessed as effect on lytic gene LMP1 at 1 uM for 3 days followed by addition of TPA, A23187 and sodium butyrate for lytic induction for 2 days by qRT-PCR analysis relative to control; conditions: Lymphoblastoid cell, time 5.0 day
[8] = target: Histone-lysine N-methyltransferase EZH2 (Homo sapiens) (UniProt Q15910); experiment: Inhibition of EZH2 (unknown origin) in Lymphoblastoid cells assessed as effect on lytic gene EBER1 at 1 uM for 3 days followed by addition of TPA, A23187 and sodium butyrate for lytic induction for 2 days by qRT-PCR analysis; conditions: Lymphoblastoid cell, time 5.0 day
[9] = target: Histone-lysine N-methyltransferase EZH2 (Homo sapiens) (UniProt Q15910); experiment: Inhibition of EZH2 in human EBV-positive Akata cells assessed as effect on cell viability at 1 uM
[10] = target: Histone-lysine N-methyltransferase EZH2 (Homo sapiens) (UniProt Q15910); experiment: Inhibition of EZH2 in human EBV-positive Akata cells assessed as effect on lytic gene EBNA2 at 1 uM after 3 days by qRT-PCR analysis; conditions: time 3.0 day
[11] = target: Histone-lysine N-methyltransferase EZH2 (Homo sapiens) (UniProt Q15910); experiment: Inhibition of EZH2 in human EBV-positive Akata cells assessed as effect on lytic gene EBNA2 at 1 uM for 3 days followed by addition of ant-IgG for lytic induction for 2 days by qRT-PCR analysis; conditions: time 5.0 day
[12] = target: Histone-lysine N-methyltransferase EZH2 (Homo sapiens) (UniProt Q15910); experiment: Inhibition of EZH2 in human EBV-positive Akata cells assessed as effect on lytic gene EBNA1 at 1 uM for 3 days followed by addition of ant-IgG for lytic induction for 2 days by qRT-PCR analysis; conditions: time 5.0 day
[13] = target: Histone-lysine N-methyltransferase EZH2 (Homo sapiens) (UniProt Q15910); experiment: Inhibition of EZH2 in human EBV-positive Akata cells assessed as effect on lytic gene gp350/200 at 1 uM after 3 days by qRT-PCR analysis; conditions: time 3.0 day
[14] = target: Histone-lysine N-methyltransferase EZH2 (Homo sapiens) (UniProt Q15910); experiment: Inhibition of EZH2 in human EBV-positive Akata cells assessed as effect on lytic gene BZLF1 at 1 uM for 3 days followed by addition of ant-IgG for lytic induction for 2 days by qRT-PCR analysis; conditions: time 5.0 day
[15] = target: Histone-lysine N-methyltransferase EZH2 (Homo sapiens) (UniProt Q15910); experiment: Inhibition of EZH2 in human EBV-positive Akata cells assessed as effect on lytic gene BZLF1 at 1 uM after 3 days by qRT-PCR analysis; conditions: time 3.0 day
[16] = target: Histone-lysine N-methyltransferase EZH2 (Homo sapiens) (UniProt Q15910); experiment: Inhibition of EZH2 in human EBV-positive Akata cells assessed as effect on lytic gene LMP2 at 1 uM after 3 days by qRT-PCR analysis; conditions: time 3.0 day
[17] = target: Histone-lysine N-methyltransferase EZH2 (Homo sapiens) (UniProt Q15910); experiment: Inhibition of EZH2 in human EBV-positive Akata cells assessed as reduction in H3K27me3 levels at 1 uM after 3 days by CHIP assay; conditions: time 3.0 day
[18] = target: Histone-lysine N-methyltransferase EZH2 (Homo sapiens) (UniProt Q15910); experiment: Inhibition of EZH2 in human EBV-positive Akata cells assessed as effect on lytic gene gp350/200 at 1 uM for 3 days followed by addition of ant-IgG for lytic induction for 2 days by qRT-PCR analysis; conditions: time 5.0 day
[19] = target: Histone-lysine N-methyltransferase EZH2 (Homo sapiens) (UniProt Q15910); experiment: Inhibition of EZH2 in human EBV-positive Akata cells assessed as effect on lytic gene LMP2 at 1 uM for 3 days followed by addition of ant-IgG for lytic induction for 2 days by qRT-PCR analysis; conditions: time 5.0 day
[20] = target: Histone-lysine N-methyltransferase EZH2 (Homo sapiens) (UniProt Q15910); experiment: Inhibition of EZH2 (unknown origin) in Lymphoblastoid cells assessed as effect on lytic gene EBNA2 at 1 uM for 3 days followed by addition of TPA, A23187 and sodium butyrate for lytic induction for 2 days by qRT-PCR analysis; conditions: Lymphoblastoid cell, time 5.0 day
[21] = target: Histone-lysine N-methyltransferase EZH2 (Homo sapiens) (UniProt Q15910); experiment: Inhibition of EZH2 (unknown origin) in Lymphoblastoid cells assessed as effect on lytic gene BARTs at 1 uM for 3 days followed by addition of TPA, A23187 and sodium butyrate for lytic induction for 2 days by qRT-PCR analysis; conditions: Lymphoblastoid cell, time 5.0 day
[22] = target: Histone-lysine N-methyltransferase EZH2 (Homo sapiens) (UniProt Q15910); experiment: Inhibition of EZH2 (unknown origin) in Lymphoblastoid cells assessed as effect on lytic gene EBNA1 at 1 uM for 3 days followed by addition of TPA, A23187 and sodium butyrate for lytic induction for 2 days by qRT-PCR analysis; conditions: Lymphoblastoid cell, time 5.0 day
[23] = target: Histone-lysine N-methyltransferase EZH2 (Homo sapiens) (UniProt Q15910); experiment: Inhibition of EZH2 in human EBV-positive Akata cells assessed as effect on lytic gene EBER1 at 1 uM for 3 days followed by addition of ant-IgG for lytic induction for 2 days by qRT-PCR analysis; conditions: time 5.0 day
[24] = target: Histone-lysine N-methyltransferase EZH2 (Homo sapiens) (UniProt Q15910); experiment: Inhibition of EZH2 in human EBV-positive Akata cells assessed as effect on lytic gene BARTs at 1 uM for 3 days followed by addition of ant-IgG for lytic induction for 2 days by qRT-PCR analysis; conditions: time 5.0 day
[25] = target: Histone-lysine N-methyltransferase EZH2 (Homo sapiens) (UniProt Q15910); experiment: Inhibition of EZH2 in human EBV-positive Akata cells assessed as increase in lytic gene LMP1 at 1 uM for 3 days followed by addition of ant-IgG for lytic induction for 2 days by qRT-PCR analysis relative to control; conditions: time 5.0 day
[26] = target: Histone-lysine N-methyltransferase EZH2 (Homo sapiens) (UniProt Q15910); experiment: Inhibition of EZH2 in human EBV-positive Akata cells assessed as increase in lytic gene LMP1 at 1 uM after 3 days by qRT-PCR analysis relative control; conditions: time 3.0 day
[27] = target: Histone-lysine N-methyltransferase EZH2 (Homo sapiens) (UniProt Q15910); experiment: Inhibition of EZH2 (unknown origin) in Lymphoblastoid cells assessed as effect on lytic gene BZLF1 at 1 uM for 3 days followed by addition of TPA, A23187 and sodium butyrate for lytic induction for 2 days by qRT-PCR analysis; conditions: Lymphoblastoid cell, time 5.0 day
[28] = target: Histone-lysine N-methyltransferase EZH2 (Homo sapiens) (UniProt Q15910); experiment: Inhibition of EZH2 in human EBV-positive Akata cells assessed as effect on lytic gene EBER1 at 1 uM after 3 days by qRT-PCR analysis; conditions: time 3.0 day
[29] = target: Histone-lysine N-methyltransferase EZH2 (Homo sapiens) (UniProt Q15910); experiment: Inhibition of EZH2 in human EBV-positive Akata cells assessed as effect on lytic gene BARTs at 1 uM after 3 days by qRT-PCR analysis; conditions: time 3.0 day

inhibition [1]: Active
inhibition [2]: Active
inhibition [3]: Active
inhibition [4]: inactive
inhibition [5]: inactive
inhibition [6]: inactive
fold change (FC) [7]: 8.3
inhibition [8]: inactive
inhibition [10]: inactive
inhibition [11]: inactive
inhibition [12]: inactive
inhibition [13]: inactive
inhibition [14]: inactive
inhibition [15]: inactive
inhibition [16]: inactive
inhibition [17]: Active
inhibition [18]: inactive
inhibition [19]: inactive
inhibition [20]: inactive
inhibition [21]: inactive
inhibition [22]: inactive
inhibition [23]: inactive
inhibition [24]: inactive
fold change (FC) [25]: 6.7
fold change (FC) [26]: 2.6
inhibition [27]: inactive
inhibition [28]: inactive
inhibition [29]: inactive
SMILES: CCCc1cc(C)[nH]c(=O)c1CNC(=O)c1cc(-c2ccnc(N3CCN(C)CC3)c2)cc2c1cnn2C(C)C
inhibition [9]: inactive
